From patent publication US20230063321A1, “Methods for Treating Inflammatory Bowel Diseases with alpha4beta7 Integrin Antagonists” (Protagonist Therapeutics, Inc., priority 2020, published 2023)
“And” between values parts separate entries of the source, which are not always exact repeats. Identical values can stand only once. Like-named read-outs stand apart in the source and are kept apart here. Marks after values point to notes of the source that are not given here. Numbered stars: 1 amine (or outer) side, 2 acyl side, 3 side chain; on linkers, the order of the positions; unused ones are H or OH. Bridge positions count the residues as written; N and C are the ends. Square brackets hold non-standard residues; d marks the D form. Peptide text beside a SMILES is read from it. I, II: the chains in the order shown. ξ: configuration not given here. Phe(4-tBu) = CC(C)(C)c1ccc(C[C@H](N)C(=O)O)cc1; Diglycolyl = O=C(COCC(=O)[*:2])[*:1]; NMeR = CN[C@@H](CCCNC(=N)N)C(=O)O; β3hE = N[C@@H](CCC(=O)O)CC(=O)O; Thr(3ξ) = CC(O)[C@H](N)C(=O)O; X1 = O=C(c1ccccc1C[*:2])[*:1]; Pen = CC(C)(S)[C@H](N)C(=O)O

Key:
[1] = Study 1 pharmacokinetics in healthy male volunteers (liquid solution); details: for Tmax / half-life / dose excreted: male, human; for Tmax / half-life: plasma; for dose excreted: urine, recovered intact in urine over 24 hours, multiple dose
Protocol: (§1) Dose escalation proceeded from 100 mg, 300 mg, 1000 mg, 1400 mg. Subjects in the 300 mg dose cohort received treatment in the fasted state on one occasion and following a high fat meal on a second occasion in a crossover fashion. The high fat meal consisted of two eggs fried in butter, two strips of bacon, two slices of toast with butter, four ounces of hash brown potatoes and 240 ml of whole milk. During Part 1, subjects refrained from food and drink except water for 10 hours before and for four hours after dosing with the exception of subjects in the 300 mg dose cohort during the fed treatment.
(§2) Part 2 was a randomized, placebo-controlled, double-blind multiple ascending dose study in 50 male subjects divided equally into 5 cohorts. […] Doses evaluated in Part 2 included 100 mg, 300 mg and 1000 mg. During Part 2, two cohorts of subjects (100 mg and 300 mg) received food approximately 30 minutes prior to each dose and another two cohorts of subjects (300 mg and 100 mg) refrained from food for 10 hours before and for 1 hour after dosing.
(§3) Study 1: The single and multiple ascending dose phase of the study consisted of sequential dose escalations in 10 subject per dose cohort. […] Dose solutions were formulated in 50 mM phosphate buffer pH 7.4 and were prepared weekly by a qualified pharmacist.
(§4) Blood samples for pharmacokinetics were collected predose and for 48 hours postdose following single doses. In the multiple ascending dose phase, blood samples were obtained on Days 1-3 and 14-16; on Days 8 samples were obtained predose, 4, and 12 hours. On Day 10 of the MAD, subjects were required to collect all urine for the 0-6, 6-12, 12-18, and 18-24 hour intervals postdose and on Day 11 subjects were required to collect fecal samples.
(§5) The drug and internal standard were extracted from the matrix by a protein precipitation procedure. The limit of quantitation was 0.2 ng/mL, 20 ng/mL, and 100 ng/mL in plasma, urine, and feces, respectively. […] Coefficient of determinations for the calibration curves were at least 0.99 for all matrices. The interassay accuracy (% bias) ranged from −2.2% to 1.0% for plasma, −3.8% to 9.0% for urine and −5.0 to 5.2% for feces. Interassay precision (% CV) ranged from 3.7% to 7.7% for plasma, 2.8% to 7.0% for urine, and 1.2% to 5.2% for feces.
(§6) Pharmacokinetic parameters were estimated by noncompartmental methods using Phoenix WinNonlin (Certara, Princeton N.J.). Peak plasma concentration (Cmax) and time to peak plasma concentration (Tmax) were observed values. The elimination rate was estimated from the slope of the least-squares regression on the terminal log-linear phase. Area under the plasma concentration-time curve from time zero to the last quantifiable concentration (AUCt) was estimated by a linear trapezoidal method and was extrapolated to infinity (AUC∞) by dividing the last quantifiable concentration b the elimination rate.

α4β7 = target: T1, α4β7 (Homo sapiens, UniProt P13612+P26010); test: α4β7 internalization / surface expression by flow cytometry; format: cell-based
T1 construct: endogenous in cells
From the text: Blood samples from human donors were obtained from the Stanford Blood Center (Stanford, Calif.) under an RB-approved research protocol. Blood was drawn into BD Vacutainer sodium heparin blood collection tubes (BD Biosciences, Cat #362753). Peripheral blood mononuclear cells (PBMCs) were isolated from blood using a SepMate-50 tube and LymphoPrep per the manufacturer's protocol. CD4^+ T memory cells were enriched after PBMC isolation, using an EasySep kit (StemCell Technologies) per the manufacturer's protocol.
After incubation, an aliquot of cells from each reaction was stained for α4β7 expression.
After incubation, cells were washed extensively to remove excess peptide. For each reaction, an aliquot of cells was stained for α4β7 expression, while a separate aliquot was tested for adhesion to MAdCAM1.
An aliquot of cells were collected before and 24 h post peptide addition and stained for α4β7 expression. Afterwards, cells were extensively washed to remove excess peptide and incubated in fresh complete culture medium (without MnCl2) for an additional seven days. On day 1, 2, 4, 5, and 7 days after peptide washout, aliquots were stained for α4β7 expression.
Following peptide incubation, an aliquot of each reaction was stained for surface expression of α4β7 in preparation for flow cytometry. Cells were stained at 4° C. for 30 minutes, washed twice in DPBS containing 0.5% BSA (PBS/BSA), incubated with streptavidin BV421 (diluted 1:1000) at 4° C. for 30 minutes, washed twice in PBS/BSA, and then resuspended in PBS/BSA for analysis. Where relevant, a “fluorescence minus one” (FMO) sample was used as the staining control.
Samples were analyzed by flow cytometry on a BD (Franklin Lakes, N.J.) FACSVerse flow cytometer equipped with the following lasers: 405 nm (violet), 488 nm (blue), 561 nm (yellow-green), and 640 nm (red). CD4^+ T memory cells were identified as CD4^+, […], CD197^+ lymphocytes. α4β7 expression within CD4^+ T memory cells was identified based on staining with the Vedolizumab BV421 complex; staining was analyzed using BD FACSuite software, version 1.0.5. Where applicable, values were normalized to no-peptide controls and expressed as percentages to permit assessment of changes in the indicated parameter. Data were plotted and analyzed using Prism software (version 7; GraphPad, La Jolla, Calif.).

[2] = Stability of dosing solutions; format: physicochemical; details: 50 mM phosphate buffer pH 7.4, stored at 2-8° C.
Protocol: Dose solutions were formulated in 50 mM phosphate buffer pH 7.4 and were prepared weekly by a qualified pharmacist.

[3] = male, human, in vivo; for Ctrough: po
Protocol: as §1, §2, §3, §4, §5, §6

[4] = target: T2, memory CD4+ T cells expressing α4β7 / recombinant MAdCAM1 (Homo sapiens, UniProt P13612+P26010); test: Potency against memory CD4+ T cells expressing α4β7 to recombinant MAdCAM1; format: cell-based; details: cells isolated from human PBMCs
T2 construct: endogenous in cells

[5] = 28-day toxicology studies (NOEL); format: in vivo, rats and cynomolgus monkeys; details: standard allometric scaling and 10-fold safety margin
Protocol: The starting dose in the first in human single and multiple dose study was based on consideration of the no observed effect level (NOEL) from 28-day toxicology studies in rats and cynomolgus monkeys, and the receptor occupancy noted in cynomolgus monkeys. The NOEL determined in rats and monkeys translated to a human equivalent dose of approximately 145 mg using standard allometric scaling and a 10-fold safety margin. A starting dose of 100 mg was selected with initial stepwise escalations of approximately 3-fold.

T1 sequence (P13612 34-1032): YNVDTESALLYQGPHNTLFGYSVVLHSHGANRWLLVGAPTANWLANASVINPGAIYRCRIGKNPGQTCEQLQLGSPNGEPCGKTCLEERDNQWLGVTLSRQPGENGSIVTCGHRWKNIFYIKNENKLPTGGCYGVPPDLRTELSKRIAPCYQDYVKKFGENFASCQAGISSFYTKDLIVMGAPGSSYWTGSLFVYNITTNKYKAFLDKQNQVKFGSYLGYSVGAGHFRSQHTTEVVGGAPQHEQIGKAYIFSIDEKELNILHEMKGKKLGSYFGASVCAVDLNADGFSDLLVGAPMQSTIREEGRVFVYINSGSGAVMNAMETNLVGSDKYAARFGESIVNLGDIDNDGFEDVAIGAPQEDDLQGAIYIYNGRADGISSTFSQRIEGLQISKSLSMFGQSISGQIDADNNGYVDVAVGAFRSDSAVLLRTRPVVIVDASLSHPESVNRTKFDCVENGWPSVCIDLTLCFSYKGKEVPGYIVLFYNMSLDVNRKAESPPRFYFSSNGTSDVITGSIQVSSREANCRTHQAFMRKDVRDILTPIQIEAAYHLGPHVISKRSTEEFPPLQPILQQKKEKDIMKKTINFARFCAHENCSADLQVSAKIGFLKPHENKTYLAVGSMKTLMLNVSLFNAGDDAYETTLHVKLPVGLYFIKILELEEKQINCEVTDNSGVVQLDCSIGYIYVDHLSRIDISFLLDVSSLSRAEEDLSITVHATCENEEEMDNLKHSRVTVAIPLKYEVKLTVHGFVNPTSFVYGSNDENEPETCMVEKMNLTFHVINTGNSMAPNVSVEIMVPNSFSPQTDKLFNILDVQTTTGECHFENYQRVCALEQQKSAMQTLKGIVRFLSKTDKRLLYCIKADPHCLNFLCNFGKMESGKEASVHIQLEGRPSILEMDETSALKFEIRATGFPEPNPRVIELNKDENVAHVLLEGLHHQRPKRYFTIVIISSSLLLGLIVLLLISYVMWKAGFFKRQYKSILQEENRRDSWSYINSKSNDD
T1 sequence (P26010 20-798): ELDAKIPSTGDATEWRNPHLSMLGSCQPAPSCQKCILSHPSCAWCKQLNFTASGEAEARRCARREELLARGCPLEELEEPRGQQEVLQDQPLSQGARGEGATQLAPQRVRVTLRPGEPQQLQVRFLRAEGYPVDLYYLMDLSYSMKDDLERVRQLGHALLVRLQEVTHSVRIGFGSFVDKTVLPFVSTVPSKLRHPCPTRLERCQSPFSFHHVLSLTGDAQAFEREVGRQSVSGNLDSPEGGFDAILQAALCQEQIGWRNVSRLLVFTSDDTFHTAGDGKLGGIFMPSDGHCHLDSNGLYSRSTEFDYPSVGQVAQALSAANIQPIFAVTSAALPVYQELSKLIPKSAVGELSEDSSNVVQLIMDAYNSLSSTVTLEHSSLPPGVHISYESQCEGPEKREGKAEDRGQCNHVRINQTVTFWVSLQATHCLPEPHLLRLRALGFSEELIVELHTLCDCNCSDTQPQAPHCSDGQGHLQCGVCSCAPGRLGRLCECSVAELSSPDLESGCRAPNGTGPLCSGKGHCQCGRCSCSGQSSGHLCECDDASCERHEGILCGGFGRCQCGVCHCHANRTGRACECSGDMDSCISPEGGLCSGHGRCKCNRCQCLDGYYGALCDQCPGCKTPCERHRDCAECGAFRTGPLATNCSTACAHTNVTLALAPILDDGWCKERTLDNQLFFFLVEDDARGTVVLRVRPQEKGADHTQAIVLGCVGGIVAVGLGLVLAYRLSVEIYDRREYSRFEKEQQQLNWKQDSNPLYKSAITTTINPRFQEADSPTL
T2 sequence (P13612 34-1032): as the sequence (P13612 34-1032) above
T2 sequence (P26010 20-798): as the sequence (P26010 20-798) above

Work on `CC(C)C[C@@H]1NC(=O)[C@H](C(C)O)NC(=O)[C@H](CC(=O)O)NC(=O)[C@H](CO)NC(=O)[C@H](CCCNC(=N)N)N(C)C(=O)c2ccccc2CSC(C)(C)[C@@H](C(=O)N[C@@H](Cc2ccc(C(C)(C)C)cc2)C(=O)N[C@@H](CCC(=O)O)CC(=O)N[C@H](CCCCNC(=O)COCC(=O)NCCCC[C@@H](NC(=O)C[C@H](CCC(=O)O)NC(=O)[C@H](Cc2ccc(C(C)(C)C)cc2)NC(=O)[C@H]2NC(=O)[C@H](CC(C)C)NC(=O)[C@H](C(C)O)NC(=O)[C@H](CC(=O)O)NC(=O)[C@H](CO)NC(=O)[C@H](CCCNC(=N)N)N(C)C(=O)c3ccccc3CSC2(C)C)C(=O)O)C(=O)O)NC1=O` (stereo partly drawn) [Compound A, ((2-Benzyl)-(N-Me-R)-Ser-Asp-Thr-Leu-Pen-(Phe(4-tBlu))-(β-homo-Glu)-(D-Lys)-OH)2 (SEQ ID NO: 5) and linker-DIG diglycolic acid] (I: [NMeR]SD[Thr(3ξ)]L[Pen][Phe(4-tBu)][β3hE][dK]-OH / II: [NMeR]SD[Thr(3ξ)]L[Pen][Phe(4-tBu)][β3hE][dK]-OH; linker I:9-II:9 via Diglycolyl; linker I:N-I:6, II:N-II:6 via X1) yielded a Tmax ([1]; oral, 1000 mg, Tmax (h), single dose 1000 mg, Median (Min, Max)) of 4 h, a half-life ([1]; oral, 1000 mg, t½ (h), 1000 mg Fasted once daily, Day 1, Mean ± SD) of 6.6 ± 1.99 h and a half-life ([1]; oral, 1000 mg, t½ (h), 1000 mg Fasted once daily, Day 14, Mean ± SD) of 7.7 ± 3.69 h. The half-life ([1]; oral, 1000 mg, t½ (h), single dose 1000 mg, Mean ± SD, N = 7) was 5.26 ± 0.91 h, the Tmax ([1]; oral, 1400 mg, Tmax (h), single dose 1400 mg, Median (Min, Max)) was 4 h and the half-life ([1]; oral, 1400 mg, mean elimination half-life, single doses 1000 and 1400 mg) was 5.3 to 5.7 h. The half-life ([1]; oral, 1400 mg, t½ (h), single dose 1400 mg, Mean ± SD) was 5.74 ± 1.35 h, the half-life ([1]; oral, mean elimination half-life, multiple doses) was 5.2 to 7.7 h and the half-life ([1]; oral, terminal half-life, fasted state) was 3.1 to 5.7 h. For the same molecule, the half-life ([1]; oral, terminal half-life, fed state) was 5.2 to 7.7 h, the Tmax ([1]; po, 300 mg, median time to peak plasma concentration, single dose 300 mg, meal 30 minutes after dosing) was 1 h and the dose excreted ([1]; po, 300 mg, 300 mg fasted) was 0.028%. For the same molecule, the dose excreted ([1]; po, 300 mg, 300 mg fed) was 0.056%, the dose excreted ([1]; po, 1000 mg) was 0.056% and the accumulation ([1]; once daily) was “approximately 0.9 fold”. The “median time to peak plasma concentration” value ([1]; single dose 300 mg, meal 60 minutes after dosing) was 2 h, the “median time to peak plasma concentration” value ([1]; single dose 300 mg, meal 90 minutes after dosing) was 4 h and the accumulation ([1]; twice-daily) was ~1.6 fold. For the same molecule, the “induced internalization of α4β7, time and concentration dependence” value (α4β7; CD4+ T memory cells, 10 nM for 0 to 48 h, 0-10 nM for 24 h) was “time (FIG. 15) and concentration (FIG. 16) dependent”, the “Maximal α4β7 expression reduction (%)” value (α4β7; Donor 1, normalized to no-peptide control) was 53% and the “Maximal α4β7 expression reduction (%)” value (α4β7; Donor 2, normalized to no-peptide control) was 25%. The “Maximal α4β7 expression reduction (%)” value (α4β7; Mean of two donors) was 39%, the “additional incubation after washout until α4β7 expression recovered to control levels” value (α4β7; human PBMCs, 10 nM 24 h then washout) was 5 days and 4 to 5 days and the “α4β7 expression MFI difference compared to FMO control (4219 MFI)” value (α4β7; human PBMCs, 10 nM, 24 h) was 20.6%. For the same molecule, the “α4β7 expression as measured by MFI” value (α4β7; human PBMCs, 10 nM, 24 h, without MnCl2) was 5090 MFI, the “dosing solutions demonstrated to be stable” value [2] was 3 months and the “AUCt (ng · h/mL)” value ([3]; 100 mg) was 12.9 ± 7.27^ ng · h/mL. For the same molecule, the “AUCinf” value ([3]; 300 mg) was 46.3 ± 19.2 ng·h/mL, the “AUCinf (ng · h/mL)” value ([3]; 300 mg) was 43.9 ± 13.0^d ng · h/mL and the “Cmax (ng/mL)” value ([3]; 300 mg) was 4.72 ± 1.85^ ng/mL. The “AUCt” value ([3]; 450 mg) was 132 ± 106 ng·h/mL, the “AUCtau” value ([3]; 450 mg) was 72.1 ± 54.7 ng·h/mL and the “Cmax” value ([3]; 450 mg) was 5.98 ± 1.61 ng/mL. For the same molecule, the “AUCinf” value ([3]; 900 mg) was 160 ± 96.5 ng·h/mL, the “AUCt” value ([3]; 900 mg) was 140 ± 74.4 ng·h/mL and the “AUCtau” value ([3]; 900 mg) was 140 ± 74.4 ng·h/mL. The “Cmax” value ([3]; 900 mg) was 22.8 ± 16.9 ng/mL, the “Ctrough” value ([3]; 450 mg) was 3.25 ± 3.5 ng/mL and the “Ctrough” value ([3]; 900 mg) was 1.78 ± 2.3 ng/mL. The IC50 [4] was 0.265 nM and the “human equivalent dose of the NOEL” value [5] was “approximately 145 mg”.
